Test results as given in US20260069694A1, “IDENTIFICATION OF HIGHLY IMMUNOSUPRESIVE TREG POPULATION IN TUMOR MICROENVIRONMENTS” (THE TRUSTEES OF COLUMBIA UNIVERSITY IN THE CITY OF NEW YORK, priority 2023, published 2026).

Assays:
naïve CD4+ T cells = assay: iTreg induction from naive CD4+ T cells with TGF-βR1 inhibitor; type: cell-based, mouse
Method: (§1) Naïve CD4^+ T cells and nTregs were isolated from the spleen of healthy C57B6129SF1/J mice by magnetic separation using a mouse CD4+ T cell isolation kit and PE-conjugated anti-mouse CD25 with anti-PE magnetic separation micro beads (Miltenyi Biotec™). The isolated T cells were stimulated with anti-CD3/CD28 beads (×25 dilution; Miltenyi Biotec™) in the presence or absence of recombinant mouse TGF-β1 (5 ng/ml; Bio-Techne™ Corporation) for 3 days. iRGD (100 μM) or iRGE (100 μM) peptide was added to the cultures in some experiments. To study the effect of TGF-β1 on the induction of αvβ5 integrin+ iTregs, naïve CD4+ T cells were cultured with anti-CD3/CD28 beads (x 25 dilution) and TGF-β1 (5 ng/ml) in the presence or absence of varying concentrations of a TGF-βR1 inhibitor (LY2157299; Selleck™ Chemicals LLC). To study the effect of TCR stimulation on the induction of αvβ5 integrin+ iTregs, naïve CD4+ T cells treated with varying concentrations of plate-coated anti-mouse CD3 Ab (eBioscience™) in the presence of soluble anti-mouse CD28 Ab (2 μg/ml) (eBioscience™) and TGF-β1 (5 ng/ml). The cells were subjected to flow cytometry as described elsewhere.
Naive CD4+ T cells isolated from healthy mice were expanded in the presence of anti-CD3/CD28 Abs, exogenous TGF-β1, and increasing doses of a TGF-βR1 inhibitor (LY2157299). […] The bar diagram of FIG. 25B summarizes the results from 3 independent experiments. The statistical analysis used was one-way ANOVA; p<0.0001 (0 vs 1), p<0.0001 (1 vs 3), p=0.0154 (3 vs 10).
The bar diagram of FIG. 26B summarizes the results from 3 independent experiments. The statistical analysis used was one-way ANOVA; p=0.3996 (αvβ5, 0 vs 1), p=0.5868 (αvβ5, 0 vs 3), p=0.2265 (NRP-1, 0 vs 1), p=0.5751 (NRP-1, 0 vs 3). The error bars indicate the mean±standard error; *p<0.05; ****p<0.0001; N.S., not significant.

[1] = test system: naïve CD4+ T cells / CD4+CD25+Foxp3+ iTregs; assay: iTreg induction from naive CD4+ T cells in the absence or presence of iRGD or iRGE; type: cell-based, mouse
Method: as §1
For the data presented in FIG. 31, FIG. 32A, and FIG. 32B, naïve CD4+ T cells were stimulated with anti-CD3/CD28 Abs and TGF-β1 in the absence or presence of iRGD or iRGE. Flow cytometry was performed to quantify the proportion of CD4+CD25+Foxp3+ iTregs (see FIG. 31) and αvβ5 integrin+ cells among the iTregs (See FIG. 32A). Apoptosis of αvβ5 integrin+ iTregs was quantitated by measuring cleaved caspase 3 using flow cytometry (see FIG. 32B; n=3).
To investigate whether iRGD Reduces CD4+CD25+Foxp3+ iTregs in an RGD-Dependent Manner in Vitro, naïve CD4+ T cells were stimulated with anti-CD3/CD28 Abs and TGF-β1 in the absence or presence of the iRGD or iRGE peptide. The resulting cells were subjected to flow cytometry to analyze the expression of CD25 and Foxp3 in the CD4+ T cells (FIG. 33A) and the expression of the αvβ5 integrin and NRP-1 on CD4+CD25+Foxp3+ iTregs (FIG. 33B). The bar diagram in (FIG. 33C) summarizes the proportion of NRP-1+ cells among the iTregs. The statistical analysis used was the one-way ANOVA; p=0.8221. n=3 per group.
The proportion of apoptotic αvβ5 integrin+ iTregs (FIG. 34) and CD4+Foxp3neg T cells (FIG. 35) was quantitated by measuring cleaved caspase 3 using flow cytometry. The statistical analysis used was Welch's t test; p=0.0705 (n=3). The dot plots and histograms of FIG. 33C and FIG. 35 show representative data from the 3 independent experiments. The error bars indicate the mean±standard error; N.S., not significant.

[2] = peptide 100 μM, anti-CD3/CD28 Abs and TGF-β1

## Cc1cccc(-c2nn3c(c2-c2ccnc4ccc(C(N)=O)cc24)CCC3)n1 [LY2157299]
naïve CD4+ T cells; among iTregs
  proportion of the NRP-1-positive iTregs: did not affect
  proportion of the αvβ5-positive iTregs: did not affect
naïve CD4+ T cells; anti-CD3/CD28 Abs, exogenous TGF-β1, increasing doses of inhibitor
  development of iTregs (CD4+Foxp3+ T cells) from naïve CD4+ T cells: suppressed the development of iTregs from naïve CD4+ T cells in a dose-dependent manner

## CRGEKGPDC [iRGE, an iRGD variant that lacks the RGD motif, reference compound]
[1]; flow cytometry
  apoptosis of CD4+Foxp3neg T cells (cleaved caspase 3): Neither iRGD nor iRGE increased the apoptosis
[1]; [2]
  proportion of CD4+CD25+Foxp3+ iTregs: ineffective
  αvβ5 integrin-positive population among the iTregs: ineffective
